Data published in US8133913B2, “Substituted indeno [1,2-b]indole derivatives as novel inhibitors of protein kinase CK2 and their use as tumor therapeutic agents, cytostatics and diagnostic aids” (Heinrich-Heine Universitat Dusseldof, priority 2006, dated 2012).
Where two headings read alike, the source gives them in different places.

Columns and labels:
SISO = experiment: Proliferation of tumor cell lines (Bracht et al.); format: cell-based; conditions: for activity at 20 µM: tested at 20 μM, read-out: T/C (%) Mean
5637 = experiment: Proliferation of tumor cell lines (Bracht et al.); format: cell-based; conditions: for activity at 20 µM: 5637, tested at 20 μM, read-out: T/C (%) Mean
TIE2 = target: T1, TIE2 (Homo sapiens, UniProt Q02763); experiment: Radiometric protein kinase assay (33PanQinase Activity Assay); format: biochemical
T1 construct: made in house; host or cells: Sf9 insect cells, baculovirus
T1 sequence (Q02763 23-1124): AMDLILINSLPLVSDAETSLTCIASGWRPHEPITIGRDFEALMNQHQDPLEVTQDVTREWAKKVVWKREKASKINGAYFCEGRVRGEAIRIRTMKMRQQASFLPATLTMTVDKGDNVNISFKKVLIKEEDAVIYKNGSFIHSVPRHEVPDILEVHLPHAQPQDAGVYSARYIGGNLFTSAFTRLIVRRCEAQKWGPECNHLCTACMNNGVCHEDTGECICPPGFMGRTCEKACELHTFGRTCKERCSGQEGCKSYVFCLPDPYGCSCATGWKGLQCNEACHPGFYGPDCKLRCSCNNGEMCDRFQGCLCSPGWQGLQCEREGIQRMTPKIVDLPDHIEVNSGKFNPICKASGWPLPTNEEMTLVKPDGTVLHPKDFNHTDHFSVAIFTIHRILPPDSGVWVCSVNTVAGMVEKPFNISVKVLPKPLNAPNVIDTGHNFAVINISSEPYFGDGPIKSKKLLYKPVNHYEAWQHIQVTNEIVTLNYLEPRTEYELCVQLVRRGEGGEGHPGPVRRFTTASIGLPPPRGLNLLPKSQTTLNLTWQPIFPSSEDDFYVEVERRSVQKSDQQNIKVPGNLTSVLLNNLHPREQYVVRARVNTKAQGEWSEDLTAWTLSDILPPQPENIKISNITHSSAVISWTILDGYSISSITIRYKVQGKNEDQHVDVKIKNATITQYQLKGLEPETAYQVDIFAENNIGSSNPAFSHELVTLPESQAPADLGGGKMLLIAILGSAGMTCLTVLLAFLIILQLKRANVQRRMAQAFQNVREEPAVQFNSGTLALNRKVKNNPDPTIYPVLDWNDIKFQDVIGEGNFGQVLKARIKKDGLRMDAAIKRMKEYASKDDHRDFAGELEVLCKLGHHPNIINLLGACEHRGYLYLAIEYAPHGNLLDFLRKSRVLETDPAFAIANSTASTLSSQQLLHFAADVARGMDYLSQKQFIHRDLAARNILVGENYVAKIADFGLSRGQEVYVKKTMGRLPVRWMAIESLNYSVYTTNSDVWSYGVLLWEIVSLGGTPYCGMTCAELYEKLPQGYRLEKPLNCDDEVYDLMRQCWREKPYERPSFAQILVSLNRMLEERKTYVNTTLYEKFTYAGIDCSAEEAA
From the text: (§1) AKTI1, ARK5, Aurora-A, Aurora-B, B-RAF-VE, CDK2/CycA, CDK4/CycD1, CK2-alpha1 (catalytic subunit of CK2), EGF-R, EPHB4, ERBB2, FAK, IGF1-R, SRC, VEGF-R2, VEGF-R3, FLT3, INS-R, MET, PDGFR-beta, PLK1, SAK, TIE2, COT.
(§2) All the protein kinases were expressed in Sf9 insect cells as human recombinant GST fusion proteins or His-tagged proteins by the baculovirus expression system. Kinases were purified by affinity chromatography either by GSH-agarose (Sigma) or Ni—NTH-agarose (Qiagen). The purity of the kinases was tested by SDS-PAGE/silver staining, and the identity of the kinases was verified by Western blot analysis with specific antibodies or mass spectroscopy.
(§3) A radiometric protein kinase assay (33PanQinase® Activity Assay) was used to measure the kinase activity for the 24 protein kinases. The kinase assays were carried out in 96-well FlashPlates™ from Perkin Elmer/NEN (Boston, Mass., USA) in a reaction volume of 50 μl. The reaction mixture was pipetted in 4 steps in the following sequence: • 20 μl of assay buffer • 5 μl of ATP solution (in H2O) • 5 μl of test compound (in 10% DMSO) • 10 μl of substrate/10 μl of enzyme solution (premixed)
(§4) The assays for all the enzymes contained 60 mM HEPES-NaOH, pH 7.5, 3 mM MgCl2, 3 mM MnCl2, 3 μM Na orthovanadate, 1.2 mM DTT, 50 μg/ml PEG20000, 1 μM [γ-^33P]-ATP (about 5×10^5 cpm per well).
(§5) The reaction mixture was incubated at 30° C. for 80 minutes. The reaction was stopped with 50 μl of 2% (v/v) H3PO4. The plates were aspirated and washed twice with 200 μl of 0.9% (w/v) NaCl. The incorporation of ^33Pi was determined using a microtiter plates scintillation counter (Microbeta Trilux, Wallac).

CDK2/CycA = target: T2, CDK2/CycA (Homo sapiens, UniProt P24941); experiment: as above; format: biochemical
T2 construct: made in house; host or cells: Sf9 insect cells, baculovirus
From the text: as §1, §2, §3, §4, §5

Aurora-B = target: T3, Aurora-B (Homo sapiens, UniProt Q96GD4); experiment: as above; format: biochemical
T3 construct: made in house; host or cells: Sf9 insect cells, baculovirus
T3 sequence (Q96GD4 whole entry): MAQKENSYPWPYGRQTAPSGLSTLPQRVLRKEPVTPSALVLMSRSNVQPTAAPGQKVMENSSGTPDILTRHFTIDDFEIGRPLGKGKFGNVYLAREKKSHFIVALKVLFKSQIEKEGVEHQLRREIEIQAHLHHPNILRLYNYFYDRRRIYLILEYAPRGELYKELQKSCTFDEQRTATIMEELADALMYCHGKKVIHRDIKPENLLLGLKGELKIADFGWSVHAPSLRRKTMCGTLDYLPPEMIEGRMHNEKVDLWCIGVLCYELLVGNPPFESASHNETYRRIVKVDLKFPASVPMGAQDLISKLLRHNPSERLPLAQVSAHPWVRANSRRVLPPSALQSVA
From the text: as §1, §2, §3, §4, §5

SRC = target: T4, SRC (Homo sapiens, UniProt P12931); experiment: as above; format: biochemical
T4 construct: made in house; host or cells: Sf9 insect cells, baculovirus
T4 sequence (P12931 whole entry): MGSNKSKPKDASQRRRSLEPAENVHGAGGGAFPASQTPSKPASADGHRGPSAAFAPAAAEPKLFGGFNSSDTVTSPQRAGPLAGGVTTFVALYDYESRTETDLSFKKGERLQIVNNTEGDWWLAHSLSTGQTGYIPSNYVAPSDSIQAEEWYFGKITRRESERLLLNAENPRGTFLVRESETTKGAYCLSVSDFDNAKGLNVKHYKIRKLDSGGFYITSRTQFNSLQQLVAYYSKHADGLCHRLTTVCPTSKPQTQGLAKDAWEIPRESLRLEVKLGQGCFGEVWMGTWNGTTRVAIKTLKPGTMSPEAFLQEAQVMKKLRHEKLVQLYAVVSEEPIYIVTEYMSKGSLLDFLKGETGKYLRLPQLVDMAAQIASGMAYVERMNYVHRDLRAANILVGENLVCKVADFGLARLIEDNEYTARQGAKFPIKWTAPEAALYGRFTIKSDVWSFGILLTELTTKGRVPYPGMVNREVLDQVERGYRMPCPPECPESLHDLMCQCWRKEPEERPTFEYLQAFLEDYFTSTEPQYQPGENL
From the text: as §1, §2, §3, §4, §5

SAK = target: T5, SAK (Homo sapiens, UniProt O00444); experiment: as above; format: biochemical
T5 construct: made in house; host or cells: Sf9 insect cells, baculovirus
T5 sequence (O00444 1-970): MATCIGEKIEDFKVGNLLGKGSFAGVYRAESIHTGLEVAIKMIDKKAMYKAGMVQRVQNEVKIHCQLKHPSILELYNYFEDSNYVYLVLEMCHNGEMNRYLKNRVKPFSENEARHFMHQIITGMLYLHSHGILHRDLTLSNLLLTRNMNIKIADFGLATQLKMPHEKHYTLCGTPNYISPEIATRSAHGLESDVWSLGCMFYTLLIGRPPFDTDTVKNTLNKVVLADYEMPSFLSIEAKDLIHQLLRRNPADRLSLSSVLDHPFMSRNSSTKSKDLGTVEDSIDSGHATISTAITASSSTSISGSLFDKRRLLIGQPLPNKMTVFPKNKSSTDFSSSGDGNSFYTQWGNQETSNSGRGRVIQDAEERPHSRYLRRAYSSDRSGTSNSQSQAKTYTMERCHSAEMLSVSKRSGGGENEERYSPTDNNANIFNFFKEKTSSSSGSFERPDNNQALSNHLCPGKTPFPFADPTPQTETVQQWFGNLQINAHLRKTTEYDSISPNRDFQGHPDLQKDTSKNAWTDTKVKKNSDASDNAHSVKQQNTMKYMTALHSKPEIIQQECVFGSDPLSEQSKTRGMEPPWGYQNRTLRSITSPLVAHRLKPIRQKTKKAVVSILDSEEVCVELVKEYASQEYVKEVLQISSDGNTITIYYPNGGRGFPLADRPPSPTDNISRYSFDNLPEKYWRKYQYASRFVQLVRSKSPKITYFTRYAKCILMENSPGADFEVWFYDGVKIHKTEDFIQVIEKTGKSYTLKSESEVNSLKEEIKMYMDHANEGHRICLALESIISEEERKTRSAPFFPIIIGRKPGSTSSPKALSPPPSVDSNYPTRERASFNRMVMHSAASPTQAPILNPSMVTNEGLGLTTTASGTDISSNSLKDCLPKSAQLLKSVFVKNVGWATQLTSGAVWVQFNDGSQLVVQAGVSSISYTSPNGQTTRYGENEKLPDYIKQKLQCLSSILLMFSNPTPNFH
From the text: as §1, §2, §3, §4, §5

INS-R = target: T6, INS-R (Homo sapiens, UniProt P06213); experiment: as above; format: biochemical
T6 construct: made in house; host or cells: Sf9 insect cells, baculovirus
T6 sequence (P06213 980-1382 limits assumed): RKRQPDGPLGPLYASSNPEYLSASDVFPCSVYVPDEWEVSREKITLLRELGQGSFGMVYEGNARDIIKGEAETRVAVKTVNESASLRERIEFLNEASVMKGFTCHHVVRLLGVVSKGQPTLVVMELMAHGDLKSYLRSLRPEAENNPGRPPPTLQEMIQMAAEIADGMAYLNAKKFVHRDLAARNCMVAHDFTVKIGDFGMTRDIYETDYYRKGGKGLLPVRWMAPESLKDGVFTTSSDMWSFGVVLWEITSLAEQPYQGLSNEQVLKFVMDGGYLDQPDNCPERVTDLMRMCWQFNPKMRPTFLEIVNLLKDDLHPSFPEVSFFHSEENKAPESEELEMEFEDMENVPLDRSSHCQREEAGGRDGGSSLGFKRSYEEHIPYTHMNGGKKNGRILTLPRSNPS
From the text: as §1, §2, §3, §4, §5

ERBB2 = target: T7, ERBB2 (Homo sapiens, UniProt P04626); experiment: as above; format: biochemical
T7 construct: made in house; host or cells: Sf9 insect cells, baculovirus
T7 sequence (P04626 23-1255): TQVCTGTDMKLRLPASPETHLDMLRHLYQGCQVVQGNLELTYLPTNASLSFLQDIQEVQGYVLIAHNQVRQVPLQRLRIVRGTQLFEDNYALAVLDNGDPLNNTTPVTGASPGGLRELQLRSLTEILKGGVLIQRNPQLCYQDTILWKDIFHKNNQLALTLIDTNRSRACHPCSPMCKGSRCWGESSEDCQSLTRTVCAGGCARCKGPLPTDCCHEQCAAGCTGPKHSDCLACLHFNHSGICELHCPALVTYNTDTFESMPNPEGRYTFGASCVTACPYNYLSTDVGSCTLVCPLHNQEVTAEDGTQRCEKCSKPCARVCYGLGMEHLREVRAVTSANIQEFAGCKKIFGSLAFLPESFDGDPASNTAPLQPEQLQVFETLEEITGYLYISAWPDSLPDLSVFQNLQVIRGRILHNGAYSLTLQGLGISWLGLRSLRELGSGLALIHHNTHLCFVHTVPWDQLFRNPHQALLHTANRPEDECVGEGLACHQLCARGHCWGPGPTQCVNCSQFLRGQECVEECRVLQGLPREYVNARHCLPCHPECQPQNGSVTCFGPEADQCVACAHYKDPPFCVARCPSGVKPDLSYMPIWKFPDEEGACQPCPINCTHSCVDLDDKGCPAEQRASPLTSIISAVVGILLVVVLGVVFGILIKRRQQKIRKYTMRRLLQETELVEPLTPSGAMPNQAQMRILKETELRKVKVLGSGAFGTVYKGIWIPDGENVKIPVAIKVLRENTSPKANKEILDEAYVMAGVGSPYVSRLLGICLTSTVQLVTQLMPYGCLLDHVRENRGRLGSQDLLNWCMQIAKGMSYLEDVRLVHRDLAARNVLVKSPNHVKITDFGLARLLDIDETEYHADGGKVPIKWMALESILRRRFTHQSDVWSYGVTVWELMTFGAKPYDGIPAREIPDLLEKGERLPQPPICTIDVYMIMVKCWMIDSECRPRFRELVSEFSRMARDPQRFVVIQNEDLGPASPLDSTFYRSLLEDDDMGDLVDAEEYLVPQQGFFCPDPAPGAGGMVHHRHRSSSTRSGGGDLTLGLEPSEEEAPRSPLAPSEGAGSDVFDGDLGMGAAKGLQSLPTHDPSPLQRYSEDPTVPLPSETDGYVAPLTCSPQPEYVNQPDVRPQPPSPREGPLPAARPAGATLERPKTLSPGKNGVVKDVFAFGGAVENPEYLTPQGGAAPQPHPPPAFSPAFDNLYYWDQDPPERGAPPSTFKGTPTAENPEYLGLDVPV
From the text: as §1, §2, §3, §4, §5

[1] = 1 μM ATP, read-out: IC50 values [μM] TIE2
[2] = 1 μM ATP, read-out: IC50 values [μM] CDK2/CycA
[3] = 1 μM ATP, read-out: IC50 values [μM] Aurora-B
[4] = 1 μM ATP, read-out: IC50 values [μM] SRC
[5] = 1 μM ATP, read-out: IC50 values [μM] SAK
[6] = 1 μM ATP, read-out: IC50 values [μM] INS-R
[7] = 1 μM ATP, read-out: IC50 values [μM] ERBB2

IC50 (SISO; read-out: IC50 (μM) Mean, inhibition of cell proliferation) [µM]	IC50 (5637; 5637, read-out: IC50 (μM) Mean, inhibition of cell proliferation) [µM]	SMILES	activity at 20 µM (SISO) [%]	activity at 20 µM 5637 [%]	IC50 (TIE2; [1]) [µM]	IC50 (CDK2/CycA; [2]) [µM]	IC50 (Aurora-B; [3]) [µM]	IC50 (SRC; [4]) [µM]	IC50 (SAK; [5]) [µM]	IC50 (INS-R; [6]) [µM]	IC50 (ERBB2; [7]) [µM]	IC50 (TIE2) [µM]	IC50 (CDK2/CycA) [µM]	IC50 (Aurora-B) [µM]	IC50 (SRC) [µM]	IC50 (SAK) [µM]	IC50 (INS-R) [µM]	IC50 (ERBB2) [µM]
		CC(C)n1c2c(=O)ccc(=O)c2c2c(=O)c3ccccc3c21 [Compound 6b, 5-Isopropyl-5H-indeno[1,2-b]indole-6,9,10-trione]	0.28	-1.73	3.2	> 10	5.4	1.6	1.7	1.6	> 10							
		CC(C)n1c2c(c3c1-c1ccccc1C3=O)C(=O)CCC2 [Compound 4b, 5-Isopropyl-5,6,7,8-tetrahydroindeno[1,2-b]indole-9,10-dione]	100	99								> 10	> 10	> 10	> 10	> 10	> 10	> 10
2.82	2.75	O=c1ccc(=O)c2c1c1c(=O)c3ccccc3c1n2Cc1ccccc1 [Compound 6c, 5-Benzyl 5,6,9,10-tetrahydroindeno[1,2-b]indole-6,9,10-trione]	5.3	0.44	4.7	> 10	> 10	0.8	3.9	6.5	7.6							
